Measurements reported in patent US6479531B1, “Gastrin and cholecystokinin receptor ligands” (James Black Foundation Limited, priority 1998, dated 2002).
Where a name gives a salt, the structure may show the parent alone.

These molecules were tested against T1, gastrin receptor (Rattus norvegicus, UniProt P30553) (assay: gastrin antagonist activity in immature rat stomach assay (pentagastrin dose-response, acid secretion)). Settings: isolated immature rat stomach, cumulative pentagastrin dose-response curves.
T1 construct: The stomach was excised and flushed with ca. 1 ml of unbuffered physiological saline solution; from tissue; host or cells: isolated whole stomach of immature rats (ca. 21 days old)
T1 sequence (P30553 1-452): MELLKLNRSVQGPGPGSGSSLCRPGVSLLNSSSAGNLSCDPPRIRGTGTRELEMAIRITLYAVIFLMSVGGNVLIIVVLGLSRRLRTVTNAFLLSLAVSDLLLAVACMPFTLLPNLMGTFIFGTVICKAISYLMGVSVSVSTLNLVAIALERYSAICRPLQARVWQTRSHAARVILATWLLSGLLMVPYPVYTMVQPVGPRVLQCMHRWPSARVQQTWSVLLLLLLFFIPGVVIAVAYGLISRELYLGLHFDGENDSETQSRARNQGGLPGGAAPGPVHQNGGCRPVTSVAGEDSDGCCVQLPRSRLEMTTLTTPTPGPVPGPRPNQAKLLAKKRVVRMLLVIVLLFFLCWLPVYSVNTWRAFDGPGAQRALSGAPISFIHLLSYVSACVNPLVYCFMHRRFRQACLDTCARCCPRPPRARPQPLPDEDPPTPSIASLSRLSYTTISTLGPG
Method: The compounds of the examples were also tested for gastrin antagonist activity in an immature rat stomach assay. The procedure was as follows:
The oesophagus of immature rats (33-50 g, ca. 21 days old) was ligated at the level of the cardiac sphincter and the duodenal sphincter was cannulated. The stomach was excised and flushed with ca. 1 ml of unbuffered physiological saline solution. The fundus was punctured and cannulated. A further 4-5 ml of unbuffered solution was flushed through the stomach to ensure the preparation was not leaking. The stomach was lowered into a jacketed organ bath containing 40 ml of buffered solution containing 3×10^−8 M 5-methylfurmethide, maintained at 37° and gassed vigorously with 95% O2/5% CO2. The stomach was continuously perfused at a rate of 1 ml min^−1 with unbuffered solution gassed with 100% O2 with the perfusate passing over an internally referenced pH-electrode fixed 12 cm above the stomach.
After 120 min of stabilisation the drugs were added directly to the serosal solution in the organ bath and after a further 60 min cumulative pentagastrin dose-response curves were started. Changes in acid secretion were monitored and the curves analysed according to Black et al., Br. J. Pharmacol., 1985, 86, 581.

Molecule	Gastrin pKb
O=C(O)c1cccc(NC(=O)c2nc([C@@H]3CC4C=C[C@@H]3C4)[nH]c2COC23CC4CC(CC(C4)C2)C3)c1 [Example 294, exo-3-([5-(Adamantan-1-yloxymethyl)-2-((1S,2R)-bicyclo[2.2.1]hept-5-en-2-yl)-1H-imidazole-4-carbonyl]-amino}-benzoic Acid]	8.43
(3-{[5-(Adamantan-1-yloxymethyl)-2-cyclohet-4-enyl-1H-imidazole-4-carbonyl]-amino}-phenyl)-acetic Acid [Example 231]	7.49
O=C(Nc1cccc(CC(O)C(=O)O)c1)c1nc(C2CCCCC2)[nH]c1CCC12CC3CC(CC(C3)C1)C2 (racemic) [Example 260, (±)-(3-{[5-(2-Adamantan-1-yl-ethyl)-2-cyclohexyl-1H-imidazole-4-carbonyl]-amino}-phenyl)-2-hydroxy-propionic Acid]	7.01
O=C(O)c1cccc(NC(=O)c2nc([C@H]3CC4C=C[C@H]3C4)[nH]c2COC23CC4CC(CC(C4)C2)C3)c1 [Example 295, exo-3-{[5-(Adamantan-1-yloxymethyl)-2-((1R,2S)-bicyclo[2.2.1]hept-5-en-2-yl)-1H-imidazole-4-carbonyl]-amino}-benzoic Acid]	8.61

Same assay, conditions: isolated immature rat stomach, cumulative pentagastrin dose-response curves, read-out: Gastrin pKb (converted)

Molecule	Kb [nM]
O=C(O)c1cccc(NC(=O)c2nc(C3C4CCC3CC4)[nH]c2COC23CC4CC(CC(C4)C2)C3)c1 (stereo not drawn) [Example 232, 3-{[5-(Adamantan-1-yloxymethyl)-2-bicyclo[2.2.1]hept-7-yl-1H-imidazole-4-carbonyl]-amino}-benzoic Acid]	1.38
CC(=O)NC(Cc1cccc(NC(=O)c2nc(C3CCCCC3)[nH]c2CCC23CC4CC(CC(C4)C2)C3)c1)C(=O)O (racemic) [Example 265, (±)-2-Acetylamino-3-(3-{[5-(2-adamantan-1-yl-ethyl)-2-cyclohexyl-1H-imidazole-4-carbonyl]-amino}-phenyl)-propionic Acid]	148
Cc1c(NC(=O)c2nc(C3CCCCC3)[nH]c2COC23CC4CC(CC(C4)C2)C3)cccc1C(=O)O [Example 218, 3-{[5-(Adamantan-1-yloxymethyl)-2-cyclohexyl-1H-imidazole-4-carbonyl]-amino}-2-methyl-benzoic Acid]	148
COCC(COC)c1nc(C(=O)Nc2cccc(C(=O)O)c2)c(CCC23CC4CC(CC(C4)C2)C3)[nH]1 [Example 189, 3-{[5-(2-Adamantan-1-yl-ethyl)-2-(2-methoxy-1-methoxymethyl-ethyl)-1H-imidazole-4-carbonyl]-amino}-benzoic Acid]	61.7
O=C(O)c1cccc(NC(=O)c2nc(-c3c(Cl)cccc3Cl)[nH]c2COC23CC4CC(CC(C4)C2)C3)c1 [Example 311, 3-{[5-(Adamantan-1-yloxymethyl)-2-(2,6-dichloro-phenyl)-1H-imidazole-4-carbonyl]-amino}-benzoic Acid]	8.71
N#Cc1ccccc1-c1nc(C(=O)Nc2cccc(C(=O)O)c2)c(COC23CC4CC(CC(C4)C2)C3)[nH]1 [Example 306, 3-{[5-(Adamantan-1-yloxymethyl)-2-(2-cyano-phenyl)-1H-imidazole-4-carbonyl]-amino}-benzoic Acid]	58.9
O=C(Cc1cccc(NC(=O)c2nc(C3CCCCC3)[nH]c2COC23CC4CC(CC(C4)C2)C3)c1)NO [Example 287, 5-(Adamantan-1-yloxymethyl)-2-cyclohexyl-1H-imidazole-4-carboxylic Acid (3-hydroxycarbamoylmethyl-phenyl)-amide]	91.2
O=C(O)Cc1cccc(NC(=O)c2nc(C3CCCCCC3)[nH]c2COC23CC4CC(CC(C4)C2)C3)c1 [Example 229, (3-{[5-(Adamantan-1-yloxymethyl)-2-cycloheptyl-1H-imidazole-4-carbonyl]-amino}-phenyl)-acetic Acid]	35.5
Cc1ccc(NC(=O)c2nc(C3C4CCC3CC4)[nH]c2COC23CC4CC(CC(C4)C2)C3)cc1C(=O)O (stereo not drawn) [Example 293, 5-{[5-(Adamantan-1-yloxymethyl)-2-bicyclo[2.2.1]hept-7-yl-1H-imidazole-4-carbonyl]-amino}-2-methyl-benzoic Acid]	3.02
O=C(O)CCc1cccc(NC(=O)c2nc(C3CCCCC3)[nH]c2CCC23CC4CC(CC(C4)C2)C3)c1 [Example 258, 3-(3-{[5-(2-Adamantan-1-yl-ethyl)-2-cyclohexyl-1H-imidazole-4-carbonyl]-amino}-phenyl)-propionic Acid Trifluoroacetic Acid Salt]	204
Cc1cc(C)c(-c2nc(C(=O)Nc3cccc(C(=O)O)c3)c(CCC34CC5CC(CC(C5)C3)C4)[nH]2)c(C)n1 [Example 182, 3-{[5-(2-Adamantan-1-yl-ethyl)-2-(2,4,6-trimethyl-pyridine-3-yl)-1H-imidazole-4-carbonyl]-amino}-benzoic Acid]	51.3
Cc1cc(C)c(-c2nc(C(=O)Nc3cccc(CC(=O)O)c3)c(COC34CC5CC(CC(C5)C3)C4)[nH]2)c(C)c1 [Example 227, (3-{[5-(Adamantan-1-yloxymethyl)-2-(2,4,6-trimethyl-phenyl)-1H-imidazole-4-carbonyl]-amino}-phenyl)-acetic Acid]	52.5
O=C(O)CCc1cc(NC(=O)c2nc(C3CCCCC3)[nH]c2CCC23CC4CC(CC(C4)C2)C3)ccc1Cl [Example 271, 3-(5-{[5-(2-Adamantan-1-yl-ethyl)-2-cyclohexyl-1H-imidazole-4-carbonyl]-amino)-2-chloro-phenyl)-propionic Acid]	355
Cc1cc(C)c(-c2nc(C(=O)Nc3cccc(C(=O)O)c3)c(COC34CC5CC(CC(C5)C3)C4)[nH]2)c(C)c1 [Example 226, 3-{[5-(Adamantan-1-yloxymethyl)-2-(2,4,6-trimethyl-phenyl)-1H-imidazole-4-carbonyl]-amino}-benzoic Acid]	13.5
CC(=O)NC(C(=O)O)c1cccc(NC(=O)c2nc(C3CCCCC3)[nH]c2CCC23CC4CC(CC(C4)C2)C3)c1 (racemic) [Example 264, (±)-Acetylamino-(3-{[5-(2-adamantan-1-yl-ethyl)-2-cyclohexyl-1H-imidazole-4-carbonyl]-amino}-phenyl)-acetic Acid]	871
CCCCCC12CCC(c3nc(C(=O)Nc4cccc(C(=O)O)c4)c(COC45CC6CC(CC(C6)C4)C5)[nH]3)(CC1)CC2 [Example 302, 3-{[5-(Adamantan-1-yloxymethyl)-2-(4-pentyl-bicyclo[2.2.2]oct-1-yl)-1H-imidazole-4-carbonyl]-amino}-benzoic Acid]	589
Cc1cc(C)c(-c2nc(C(=O)Nc3ccc(F)c(C(=O)O)c3)c(CCC34CC5CC(CC(C5)C3)C4)[nH]2)c(C)n1 [Example 184, 5-{[5-(2-Adamantan-1-yl-ethyl)-2-(2,4,6-trimethyl-pyridine-3-yl)-1H-imidazole-4-carbonyl]-amino}-2-fluoro-benzoic Acid]	70.8
Cc1ccc(NC(=O)c2nc(C3CCCCCCC3)[nH]c2COC23CC4CC(CC(C4)C2)C3)cc1C(=O)O [Example 298, 5-{[5-(Adamantan-1-yloxymethyl)-2-cyclooctyl-1H-imidazole-4-carbonyl]-amino}-2-methyl-benzoic Acid]	1.95
O=C(O)c1cccc(NC(=O)c2nc(C3CCCCC3)[nH]c2COCC23CC4CC(CC(C4)C2)C3)c1 [Example 309, 3-{[5-(Adamantan-1-ylmethoxymethyl)-2-cyclohexyl-1H-imidazole-4-carbonyl]-amino}-benzoic Acid]	24.5
CN(CC(=O)O)C(=O)c1cccc(NC(=O)c2nc(C3CCCCC3)[nH]c2CCC23CC4CC(CC(C4)C2)C3)c1 [Example 266, [(3-{[5-(2-Adamantan-1-yl-ethyl)-2-cyclohexyl-1H-imidazole-4-carbonyl]-amino}-benzoyl)-methyl-amino]-acetic Acid]	19.1
Cc1ccc(NC(=O)c2nc(C34C=CC(CC3)CC4)[nH]c2COC23CC4CC(CC(C4)C2)C3)cc1C(=O)O [Example 301, 5-{[5-(Adamantan-1-yloxymethyl)-2-bicyclo[2.2.2]oct-2-en-1-yl-1H-imidazole-4-carbonyl]-amino}-2-methyl-benzoic Acid]	2.63
O=C(O)/C=C/c1cccc(NC(=O)c2nc(C3CCCCC3)[nH]c2CCC23CC4CC(CC(C4)C2)C3)c1 [Example 259, trans-3-(3-{[5-(2-Adamantan-1-yl-ethyl)-2-cyclohexyl-1H-imidazole-4-carbonyl]-amino}-phenyl)-acrylic Acid]	70.8
COCC1(c2nc(C(=O)Nc3cccc(C(=O)O)c3)c(CCC34CC5CC(CC(C5)C3)C4)[nH]2)CCCCC1 [Example 203, 3-{[5-(2-Adamantan-1-yl-ethyl)-2-(1-methoxymethyl-cyclohexyl)-1H-imidazole-4-carbonyl]-amino}-benzoic Acid]	11.7
